Patent publication US20230146455A1, “TREATMENT OF INFLAMMATORY DISEASES WITH PEPTIDES AND PHARMACEUTICAL COMPOSITIONS” (Yuyu Pharma, Inc., priority 2020, published 2023)
Several values for one entry are separate records, joined by “and”; a condition that tells them apart may be missing. Equal entries are not always repeated. Entries after “also recorded” stand apart in the source; their conditions may differ. Where a SMILES comes first, the peptide text is derived from it. [ ]: non-standard residue; d: D form. Hyp = O=C(O)[C@@H]1C[C@@H](O)CN1

Columns and labels:
[1] = test system: CCL3/MIP-1 alpha; assay: Example 8 main study Luminex, LPS hPBMCs: CCL3/MIP-1 alpha; type: cell-based, human; conditions: for LPS-induced CCL-3 (in words): at as low as 5 μM, LPS 5 ug/mL 24 hrs
Experimental: (§1) Human PBMCs were pretreated with YY-101, YDE-011, YDE-043 or reference compound; Xiidra® at various concentration (ranging from […] to 500 nM) for 2 h before stimulation. An equal volume of 0.5% DMSO was used as a vehicle control. Then, the cells were treated with LPS at 5 ug/ml, which was selected based on the pilot study. The supernatants from treated cells were harvested at 24 h and placed in a 96 well for Luminex cytokine & chemokine profiling using a Luminex 200 multiplex assay (Luminex; R&D system, USA).
(§2) The main study arm with triplicate wells per group in a 24-well plate: • 1. Blank • 2. PBMC: 0.5% DMSO • 3. PBMC+LPS (5 ug/ml) • 4. PBMC+YY-101 500 nM • 5. PBMC+YY-101 50 nM • 6. PBMC+YY-101 5 nM • 7. PBMC+YY-101 0.5 nM • 8. PBMC+LPS (5 ug/ml)+Xiidra® 500 nM • 9. PBMC+LPS (5 ug/ml)+Xiidra® 50 nM • 10. PBMC+LPS (5 ug/ml)+Xiidra® 5 nM • 11. PBMC+LPS (5 ug/ml)+Xiidra® 0.5 nM • 12. PBMC+LPS (5 ug/ml)+Xiidra® 0.05 nM • 13. PBMC+LPS (5 ug/ml)+Xiidra® 0.005 nM • 14. PBMC+LPS (5 ug/ml)+YY-101 500 nM • 15. PBMC+LPS (5 ug/ml)+YY-101 50 nM • 16. PBMC+LPS (5 ug/ml)+YY-101 5 nM • 17. PBMC+LPS (5 ug/ml)+YY-101 0.5 nM • 18. PBMC+LPS (5 ug/ml)+YY-101 0.05 nM • 19. PBMC+LPS (5 ug/ml)+YY-101 0.005 nM • 20. PBMC+LPS (5 ug/ml)+YDE-011 500 nM • 21. PBMC+LPS (5 ug/ml)+YDE-011 50 nM • 22. PBMC+LPS (5 ug/ml)+YDE-011 5 nM • 23. PBMC+LPS (5 ug/ml)+YDE-011 0.5 nM • 24. PBMC+LPS (5 ug/ml)+YDE-011 0.05 nM • 25. PBMC+LPS (5 ug/ml)+YDE-011 0.005 nM • 26. PBMC+LPS (5 ug/ml)+YDE-043 500 nM • 27. PBMC+LPS (5 ug/ml)+YDE-043 50 nM • 28. PBMC+LPS (5 ug/ml)+YDE-043 5 nM • 29. PBMC+LPS (5 ug/ml)+YDE-043 0.5 nM • 30. PBMC+LPS (5 ug/ml)+YDE-043 0.05 nM • 31. PBMC+LPS (5 ug/ml)+YDE-043 0.005 nM
(§3) Multiplex assay was used to measure 30 cytokines and chemokines. The 1:200 diluted cell supernatant and serial dilution of the standard were dispensed into a 96 well plate at 50 ul/well. Then, the pre-mixed cocktail of antibody-coated magnetic beads was dispensed at 50 ul/well and incubated at room temperature for 2 h in a horizontal orbital microplate shaker at 800±500 rpm. The beads were washed using a magnetic device to prevent loss. The biotin-antibody was dispensed in 50 ul of each well and incubated at room temperature for 1 h in a shaker at 800±500 rpm. After washing, streptavidin-PE was added at 50 ul/well and incubated at room temperature for 30 min in a shaker under the same conditions. Finally, after washing, wash buffer (100 ul/well) was added to the plate and incubated in a shaker for 2 min. The Luminex™ 200 setting were set according to the manufacturer's protocol. The data was calculated with a standard five-parameter logistic nonlinear regression analysis of the data (xPonent software 4.2, USA). Results were presented as concentration (ng/ml or pg/ml).

[2] = test system: Leptin; assay: Example 8 main study Luminex, LPS hPBMCs: Leptin; type: cell-based, human; conditions: PBMC + LPS(5 ug/ml)
Experimental: as §1, §2, §3

[3] = test system: cytokine and chemokine release in human peripheral blood mononuclear cells (hPBMCs); assay: Luminex multiplex, 30 cytokines and chemokines, LPS stimulated hPBMCs, main study (Example 8, Study 1), whole panel; type: cell-based; conditions: LPS 5 ug/mL 24 hrs; up to 500 nM
Experimental: Human PBMCs frozen in a cryopreserve was thawed, washed with Hank's Balanced Salt Solution containing 10% Fetal bovine serum, and seeded onto a 24-well plate at a density of 1×10^6 cells/well with culture RPMI media containing 10% Fetal bovine serum in growth media in a 24 well plate for 12, 24, and 48 hrs and maintained at 37° C. in an atmosphere of 95% air and 5% CO2.
as §1, §2
as §3, with “After washing, streptavidin-PE was added at 50 ul/well and incubated at room temperature for 30 min in a shaker under the same conditions. Finally, after washing, wash buffer (100 ul/well) was added to the plate and incubated in a shaker for 2 min. The Luminex™ 200 setting were set according to the manufacturer's protocol.” left out, “Results were presented as concentration (ng/ml or pg/ml).” left out

[4] = PBMC + LPS(5 ug/ml) + test article 0.005 nM, Mean
[5] = PBMC + LPS(5 ug/ml) + test article 0.005 nM, single replicates
[6] = PBMC + LPS(5 ug/ml) + test article 0.05 nM, Mean
[7] = PBMC + LPS(5 ug/ml) + test article 0.05 nM, single replicates
[8] = PBMC + LPS(5 ug/ml) + test article 0.5 nM, Mean
[9] = PBMC + LPS(5 ug/ml) + test article 0.5 nM, single replicates
[10] = PBMC + LPS(5 ug/ml) + test article 5 nM, Mean
[11] = PBMC + LPS(5 ug/ml) + test article 5 nM, single replicates
[12] = PBMC + LPS(5 ug/ml) + test article 50 nM, Mean
[13] = PBMC + LPS(5 ug/ml) + test article 50 nM, single replicates
[14] = PBMC + LPS(5 ug/ml) + test article 500 nM, Mean
[15] = PBMC + LPS(5 ug/ml) + test article 500 nM, single replicates

| SMILES | CCL3/MIP-1 alpha Concentration [1, 4] | CCL3/MIP-1 alpha MFI [1, 4] | CCL3/MIP-1 alpha Concentration [1, 5] | CCL3/MIP-1 alpha MFI [1, 5] | CCL3/MIP-1 alpha Concentration [1, 6] | CCL3/MIP-1 alpha MFI [1, 6] | CCL3/MIP-1 alpha Concentration [1, 7] | CCL3/MIP-1 alpha MFI [1, 7] | CCL3/MIP-1 alpha Concentration [1, 8] | CCL3/MIP-1 alpha MFI [1, 8] | CCL3/MIP-1 alpha Concentration [1, 9] | CCL3/MIP-1 alpha MFI [1, 9] | CCL3/MIP-1 alpha Concentration [1, 10] | CCL3/MIP-1 alpha MFI [1, 10] | CCL3/MIP-1 alpha Concentration [1, 11] | CCL3/MIP-1 alpha MFI [1, 11] | CCL3/MIP-1 alpha Concentration [1, 12] | CCL3/MIP-1 alpha MFI [1, 12] | CCL3/MIP-1 alpha Concentration [1, 13] | CCL3/MIP-1 alpha MFI [1, 13] | other results |
| --- | --- | --- | --- | --- | --- | --- | --- | --- | --- | --- | --- | --- | --- | --- | --- | --- | --- | --- | --- | --- | --- |
| CC(C)C[C@H](NC(=O)[C@H](CCC(N)=O)NC(=O)CNC(=O)[C@@H]1C[C@@H](O)CN1)C(=O)NCC(=O)O [YDE-043] (H-[Hyp]GQLG-OH; N-terminus and C-terminus assumed) | 38526.9 pg/mL | 57.3 | 32345.4 pg/mL and 37296.1 pg/mL and 45939.1 pg/mL | 44.0 and 54.0 and 74.0 | 29535.1 pg/mL | 38.8 | 28213.9 pg/ml and 30195.7 pg/ml (2×) | 36.5 and 40.0 (2×) | 30000.1 pg/mL | 39.7 | 29639.8 pg/mL and 31284.6 pg/mL and 29075.9 pg/mL | 39.0 and 42.0 and 38.0 | 31809.4 pg/mL | 43.0 | 31818.4 pg/mL and 32865.8 pg/mL and 30743.9 pg/mL | 43.0 and 45.0 and 41.0 | 31754.6 pg/mL | 43.0 | 33380.1 pg/ml (2×) and 28503.4 pg/ml | 46.0 (2×) and 37.0 | CCL3/MIP-1 alpha Concentration [1, 14]: 28096.2 pg/mL; CCL3/MIP-1 alpha MFI [1, 14]: 36.3; CCL3/MIP-1 alpha Concentration [1, 15]: 28503.4 pg/mL and 26426.3 pg/mL and 29358.9 pg/mL; CCL3/MIP-1 alpha MFI [1, 15]: 37.0 and 33.5 and 38.5; LPS-induced CCL-3 (in words) [1]: significantly reduced; Leptin Concentration (pg/ml), Mean ([2]; test article 0.005 nM): 19724.6 pg/mL; Leptin Concentration (pg/ml), single replicates ([2]; test article 0.005 nM): 18547.4 pg/ml (2×) and 22079.2 pg/ml; Leptin Concentration (pg/ml), Mean ([2]; test article 0.05 nM): 10481.4 pg/mL; Leptin Concentration (pg/ml), single replicates ([2]; test article 0.05 nM): 10481.4 pg/ml and <98.95 pg/ml (2×); Leptin Concentration (pg/ml), Mean ([2]; test article 0.5 nM): 15646.1 pg/mL; Leptin Concentration (pg/ml), single replicates ([2]; test article 0.5 nM): 12493.0 pg/ml and 17222.7 pg/ml (2×); Leptin Concentration (pg/ml), Mean ([2]; test article 5 nM): 15505.7 pg/mL; Leptin Concentration (pg/ml), single replicates ([2]; test article 5 nM): 19789.4 pg/mL and 12493.0 pg/mL and 14234.9 pg/mL; Leptin Concentration (pg/ml), Mean ([2]; test article 50 nM): 18458.0 pg/mL; Leptin Concentration (pg/ml), single replicates ([2]; test article 50 nM): 15795.3 pg/ml and 19789.4 pg/ml (2×); Leptin Concentration (pg/ml), Mean ([2]; test article 500 nM): 10678.9 pg/mL; Leptin Concentration (pg/ml), single replicates ([2]; test article 500 nM): 17222.7 pg/mL and 4332.6 pg/mL and 10481.4 pg/mL; LPS-induced cytokine/chemokine levels, whole panel (in words) [3]: more effectively lowered cytokine and chemokine production; also recorded: potently and significantly reduced pro-inflammatory cytokine/chemokine production |
| CC(C)C[C@H](NC(=O)CNC(=O)[C@H](CC(C)C)NC(=O)[C@H](CCC(N)=O)NC(=O)CNC(=O)[C@@H]1C[C@@H](O)CN1)C(=O)N[C@@H](C)C(=O)NCC(=O)N1CCC[C@H]1C(=O)N[C@@H](CCCCN)C(=O)O [YDE-011] (H-[Hyp]GQLGLAGPK-OH) | 30631.2 pg/mL | 40.8 | 31818.4 pg/mL and 28790.7 pg/mL and 31284.6 pg/mL | 43.0 and 37.5 and 42.0 | 34293.4 pg/mL | 47.8 | 34390.9 pg/mL and 32865.8 pg/mL and 35623.4 pg/mL | 48.0 and 45.0 and 50.5 | 30465.1 pg/mL | 40.5 | 31284.6 pg/mL and 29639.8 pg/mL and 30470.7 pg/mL | 42.0 and 39.0 and 40.5 | 27362.3 pg/mL | 35.2 | 25497.0 pg/mL and 26119.3 pg/mL and 30470.7 pg/mL | 32.0 and 33.0 and 40.5 | 28334.6 pg/mL | 37.3 | 32865.8 pg/mL and 21122.8 pg/mL and 31015.1 pg/mL | 45.0 and 25.5 and 41.5 | CCL3/MIP-1 alpha Concentration [1, 14]: 27851.5 pg/mL; CCL3/MIP-1 alpha MFI [1, 14]: 36.8; CCL3/MIP-1 alpha Concentration [1, 15]: 34390.9 pg/mL and 19244.9 pg/mL and 29918.7 pg/mL; CCL3/MIP-1 alpha MFI [1, 15]: 48.0 and 23.0 and 39.5; LPS-induced CCL-3 (in words) [1]: significantly reduced; Leptin Concentration (pg/ml), Mean ([2]; test article 0.005 nM): 14975.6 pg/mL; Leptin Concentration (pg/ml), single replicates ([2]; test article 0.005 nM): 17222.7 pg/ml (2×) and 10481.4 pg/ml; Leptin Concentration (pg/ml), Mean ([2]; test article 0.05 nM): 14835.2 pg/mL; Leptin Concentration (pg/ml), single replicates ([2]; test article 0.05 nM): 19789.4 pg/mL and 10481.4 pg/mL and 14234.9 pg/mL; Leptin Concentration (pg/ml), Mean ([2]; test article 0.5 nM): 9683.0 pg/mL; Leptin Concentration (pg/ml), single replicates ([2]; test article 0.5 nM): 10481.4 pg/mL and 4332.6 pg/mL and 14234.9 pg/mL; Leptin Concentration (pg/ml), Mean ([2]; test article 5 nM): 10777.7 pg/mL; Leptin Concentration (pg/ml), single replicates ([2]; test article 5 nM): <98.95 pg/mL and 4332.6 pg/mL and 17222.7 pg/mL; Leptin Concentration (pg/ml), Mean ([2]; test article 50 nM): 12358.1 pg/mL; Leptin Concentration (pg/ml), single replicates ([2]; test article 50 nM): 10481.4 pg/mL and 14234.9 pg/mL and <98.95 pg/mL; Leptin Concentration (pg/ml), Mean ([2]; test article 500 nM): 13896.3 pg/mL; Leptin Concentration (pg/ml), single replicates ([2]; test article 500 nM): 19789.4 pg/mL and <98.95 pg/mL and 8003.2 pg/mL; LPS-induced cytokine/chemokine levels, whole panel (in words) [3]: potently and significantly reduced pro-inflammatory cytokine/chemokine production |
